Assay results reported in patent US12636299B2, “Terpenoid derivatives, pharmaceutical preparations containing these derivatives and their use in neuroprotection” (UNIVERZITA PALACKEHO V OLOMOUCI, priority 2020, dated 2026).

Assays:
[1] = tested on: superoxide radical formation; assay: Oxidative stress (superoxide radical formation, DHE) in 3NPA-induced model on SH-SY5Y; assay type: cell-based, human; conditions: for Superoxide radical formation (oxidative stress) %: 20 mM 3NPA = 100%, 24 hours
Method: Similarly, to previous assay, cells grown on 96-multiwell plates at density 20000 cells per well underwent differentiation and treatment procedure with 3-nitropropionic acid (3NPA) in this model. After 24 hours of co-treatment with 20 mM 3NPA, superoxide radical's formation as a marker of oxidative stress was quantified by dihydroethidium according to Kim et al. (2017, J. Med. Food, 20, 140-151). Briefly, neuron-like SH-SY5Y cells were centrifuged at 500 g for 5 min and 30 s, then media were replaced by 10 μM DHE PBS solution and kept at room temperature for 30 min. After that, DHE was read at 500 nm/580 nm (excitation/emission) by Infinite M200 Pro (Tecan) microplate reader. DHE is cell permeable dye which is selective for superoxide radical detection. Overall oxidative stress achieved by 20 mM 3NPA was consider as 100% and thus the reduction in superoxide radical's formation (OS reducing effect) was determined. As shown in Table 6 and FIG. 2, 20 mM 3NPA induced 2.7-fold increase in superoxide radical's formation.

[2] = tested on: human neuron-like SH-SY5Y cells; assay: 3NPA-induced model of Huntington's disease, neuron-like SH-SY5Y cells; assay type: cell-based; conditions: difference to 20 mM 3NPA, 48 h
Method: (§1) Before application of toxin 3-nitropropionic acid (3NPA) for mimicking Huntington's disease, the 3NPA was dissolved in water and neutralized by sodium hydroxide. SH-SY5Y cells were seeded in the same density and differentiated by the procedure shown above. Astrocyte cells A-172 were also seeded as described in previous section. Both cell lines were co-treated by 3NPA (20 mM for SH-SY5Y cells, […]) and tested compounds at 0.1, 1 and 10 μM concentration for 48 h.

astrocyte A-172 cells = assay: 3NPA-induced model of Huntington's disease, astrocyte A-172 cells; assay type: cell-based, human; conditions: for Astro-protective effect (% of control): difference to 10 mM 3NPA, 48 h
Method: as §1

caspase-3,7 activity = assay: Caspase-3,7 activity in salsolinol-induced model of PD on SH-SY5Y (Ac-DEVD-AMC); assay type: cell-based, human; conditions: for Caspase-3,7 activity (% of 800 μM SAL control): percentages of control (800 μM SAL = 100), 24 hour co-treatment; for reduction of caspase-3,7 activity, in words: 800 μM SAL, compounds 3 and 4 at 10 μM compared with NAC; for efficacy relative to positive controls (by used concentration): caspase-3,7 activity, salsolinol model
Method: Similarly, as shown in previous assay, cells grew on 96 multiwell plates at density 20000 cells per well underwent differentiation and treatment procedure for salsolinol model. After 24 hour co-treatment with salsolinol, caspase-3,7 (casp-3,7) activity as marker of apoptosis was quantified by its substrate Ac-DEVD-AMC according to Carrasco et al. (2003, BioTechniques, 34, 1064-1067). In this model, overall casp-3,7 activity induced by 800 μM SAL was consider as 100% and thus the reduction in casp-3,7 was observed after treatment with the protective terpenoid derivatives. As shown in Table 4 and FIG. 2, 800 μM SAL induced 2.9-fold increase.

[3] = tested on: SH-SY5Y human neuroblastoma cell line; assay: Cytotoxicity, Calcein AM viability assay on neuron-like SH-SY5Y cells; assay type: cell-based; conditions: 24 h
Method: The SH-SY5Y human neuroblastoma cell line obtained from ECACC (The European Collection of Authenticated Cell Cultures) was cultivated in Dulbecco's modified Eagle's Medium and Ham's F12 Nutrient Mixture (DMEM:F-12, 1:1), supplemented with 10% fetal bovine serum (FBS) and 1% penicillin and streptomycin at 37° C. in a humidified atmosphere 5% CO2, 95% humidity in passage limit up to ECACC+20. The assay was performed in 96-well microplate with 7000 SH-SY5Y cells per well. After 48 h, old DMEM/F12 media was removed by fresh media containing tested compounds at 0.1, 1 and 10 μM concentrations for 24 h. Glial cell line A-172 purchased from ATCC and grown in same conditions as SH-SY5Y cell line. A-172 cells were seeded in density 2000 cells per well and growing medium was replaced by treatment medium containing tested compounds in 0.1, 1 and 10 μM concentration; or in higher concentrations for R-LA or NAC positive controls for 48 hours. All tested compounds dissolved in DMSO were added into the medium. The maximum concentration of DMSO in media was kept below 0.1% (v/v). The cell viability was measured by Calcein AM (1 mg/ml ThermoFisher) viability assay. Solution of Calcein AM in PBS (0.75 μM) was pipetted to cells and incubated for 50 min. After that the fluorescence was measured at 488/517 nm (excitation/emission) using microplate reader Infinite M200 (TECAN). Calcein AM assay is based on the dye-intracellular-esterase cleavage of non-fluorescent dye (Calcein AM) by living cells to fluorescent dye (Calcein), while dying cells lose such ability. The values in Table 2 show the % of viability compared to control for all tested compounds. The results from DMSO control (medium with DMSO, <0.1% (v/v)) was postulated as 100% viability (see the first line of Table 2).

glial A-172 cells [4] = assay: Cytotoxicity, Calcein AM viability assay on glial A-172 cells; assay type: cell-based, human; conditions: NAC at 1000 μM
Method: The assay was performed in 96-well microplate with 7000 SH-SY5Y cells per well. After 48 h, old DMEM/F12 media was removed by fresh media containing tested compounds at 0.1, 1 and 10 μM concentrations for 24 h. Glial cell line A-172 purchased from ATCC and grown in same conditions as SH-SY5Y cell line. […] All tested compounds dissolved in DMSO were added into the medium. The maximum concentration of DMSO in media was kept below 0.1% (v/v). The cell viability was measured by Calcein AM (1 mg/ml ThermoFisher) viability assay. Solution of Calcein AM in PBS (0.75 μM) was pipetted to cells and incubated for 50 min. After that the fluorescence was measured at 488/517 nm (excitation/emission) using microplate reader Infinite M200 (TECAN). Calcein AM assay is based on the dye-intracellular-esterase cleavage of non-fluorescent dye (Calcein AM) by living cells to fluorescent dye (Calcein), while dying cells lose such ability.

glial A-172 cells [5] = assay: as above; assay type: cell-based, human; conditions: 48 hours
[6] = tested on: human neuroblastoma cell line SH-SY5Y; assay: Viability of differentiated SH-SY5Y in salsolinol-induced model of PD (Calcein AM); assay type: cell-based; conditions: for Neuroprotective effect (% of control): difference between 800 μM SAL and co-treatment group means, 24 hours; for effect on SH-SY5Y viability in salsolinol model, in words: 800 μM salsolinol, comparison with NAC
Method: Similarly, as in previous “Safety test”, the SH-SY5Y cells were seeded at density 7000 cells/well. After 48 h differentiation, old 1% DMEM/F12 media was replaced by fresh media containing 800 μM salsolinol (SAL) and tested compounds in 0.1, 1 and 10 μM concentrations. N-acetylcystein were chosen as positive control. After 24 hours, the cell viability was measured by Calcein AM viability assay. The values in Table 2 show % of viability of all tested compounds relative to control. The control (medium with DMSO, <0.1% (v/v)) was postulated as 100% viability (see the first line of the table), while the SAL exposure lead to decrease of viability to 65.4±0.97%.

Row | SMILES | Superoxide radical formation (oxidative stress) % ([1]; 0.1 μM) [%] | Superoxide radical formation (oxidative stress) % ([1]; 1 μM) [%] | Superoxide radical formation (oxidative stress) % ([1]; 10 μM) [%] | Neuro-protective effect (% of control) ([2]; 0.1 μM) | Neuro-protective effect (% of control) ([2]; 1 μM) | Neuro-protective effect (% of control) ([2]; 10 μM) | Astro-protective effect (% of control) (astrocyte A-172 cells; A-172, 0.1 μM) | Astro-protective effect (% of control) (astrocyte A-172 cells; A-172, 1 μM) | Astro-protective effect (% of control) (astrocyte A-172 cells; A-172, 10 μM) | Caspase-3,7 activity (% of 800 μM SAL control) (caspase-3,7 activity; 1 μM) [%] | Caspase-3,7 activity (% of 800 μM SAL control) (caspase-3,7 activity; 10 μM) [%] | reduction of caspase-3,7 activity, in words (caspase-3,7 activity) | efficacy relative to positive controls (by used concentration) (caspase-3,7 activity) [fold] | viability, percentage of DMSO control ([3]; 0.1 μM) [%] | viability, percentage of DMSO control ([3]; 1 μM) [%] | viability, percentage of DMSO control ([3]; 10 μM) [%] | effect on viability of astrocytes, in words (glial A-172 cells [4]) | viability, percentage of DMSO control (glial A-172 cells [5]; 0.1 μM) [%] | viability, percentage of DMSO control (glial A-172 cells [5]; 1 μM) [%] | viability, percentage of DMSO control (glial A-172 cells [5]; 10 μM) [%] | also measured
1 | C=C(C(=O)OCc1ccncc1)C1CCC2(COC(C)=O)CCC3(C)C(CCC4C5(C)CCC(OC(C)=O)C(C)(C)C5CCC43C)C12 (stereo not drawn) [Compound 3, Pyridin-4-yl-methyl 3β,28-bis(acetyloxy)lup-20(30)-en-29-oate] | 88.4 | 79.0 | 81.9 | N/A (N/A = no protection) | 39.96 % of control | 24.13 % of control | N/A (N/A = no protection) | 11.98 % of control | N/A (N/A = no protection) | 73.7 | 55.6 | comparable | 10 | 115.8 | 145.0 | 137.4 | slight decrease in percentage of living cells | 95.5 | 98.2 | 71.7 | OS reducing effect, in words ([1]; 10 μM, comparison with 100 μM NAC): even stronger activity toward oxidative stress; protective effect on astrocytes in 3NPA model, in words (astrocyte A-172 cells; A-172 cells, comparison with R-LA): positive effect comparable to R-LA control; Neuroprotective effect (% of control) ([6]; 0.1 μM): N/A (N/A = no protection); Neuroprotective effect (% of control) ([6]; 1 μM): 33.10 % of control; Neuroprotective effect (% of control) ([6]; 10 μM): 21.50 % of control; effect on SH-SY5Y viability in salsolinol model, in words [6]: better effect than 1000 μM NAC
2 | C=C(C(=O)OCc1cccnc1)C1CCC2(COC(C)=O)CCC3(C)C(CCC4C5(C)CCC(OC(C)=O)C(C)(C)C5CCC43C)C12 (stereo not drawn) [Compound 4, Pyridin-3-yl-methyl (3β)-3,28-bis(acetyloxy)lup-20(30)-en-29-oate] | 84.7 | 78.5 | 65.8 | N/A (N/A = no protection) | 32.36 % of control | 28.98 % of control | 7.38 % of control | 3.25 % of control | N/A (N/A = no protection) | 67.2 | 46.0 | better | 10 | 99.9 | 146.1 | 142.5 | slight decrease in percentage of living cells | 104.2 | 97.9 | 83.6 | Neuroprotective effect (% of control) ([6]; 0.1 μM): N/A (N/A = no protection); Neuroprotective effect (% of control) ([6]; 1 μM): 33.70 % of control; Neuroprotective effect (% of control) ([6]; 10 μM): 33.99 % of control; effect on SH-SY5Y viability in salsolinol model, in words [6]: better effect than 1000 μM NAC
